Data taken from patent publication US8802674B2, “Aminopyrimidine derivatives as LRRK2 modulators” (Genentech, Inc., priority 2011, dated 2014).

biological target: LRRK2 (Homo sapiens (Human), UniProt Q5S007, G2019S); experiment: In Vitro LRRK2 LabChip Assay; assay type: biochemical; details: Table 4
Description: In Vitro LRRK2 LabChip Assay
This assay was used to determine a compound's potency in inhibiting activity of LRRK2 by determining, Kiapp, IC50, or percent inhibition values. In a polypropylene plate, LRRK2, fluorescently-labeled peptide substrate, ATP and test compound were incubated together. Using a LabChip 3000 (Caliper Life Sciences), after the reaction the substrate was separated by capillary electrophoresis into two populations: phosphorylated and unphosphorylated. The relative amounts of each were quantitated by fluorescence intensity. LRRK2 Ki was determined according to the equation: Y=V0*(1−((x+Ki*(1+S/Km)+Et)/(2*Et)−(((x+Ki*(1+S/Km)+Et)^2−(4*Et*x))^0.5)/(2*Et))). Ki values in Table 4 and elsewhere herein are shown in μM.
Assay conditions and materials used were as follows:
Compound Plate Preparation:
For serial dilutions, 34.6 μl DMSO was added to columns 3-24. For the assay controls, 37.5 μl DMSO was added to columns 1 and 2 of rows A and P. a,d and 50 μl 25 μM G-028831 (Staurosporine) was added to columns 1 and 2, row B. For the samples: to start at 100 μM, 37.5 μl DMSO was to columns 1 and 2, then 12.5 μl 10 mM compound; to start at 10 μM, 78 μl DMSO was added to columns 1 & 2, then 2 μl 10 mM compound; and to start at 1 μM, 25 μM compound (2 μl 10 mM cmpd+798 μl DMSO) was added to empty columns 1 and 2. A Precision instrument was used to perform 1:3.16 serial dilutions (“PLK_BM_serial_halflog”).
ATP was diluted to 282.1 μM in Complete Kinase Buffer (final concentration was 130 μM).
Total and Blank Preparation:
In Complete Reaction Buffer, substrate was diluted to 4 μM. Equal volumes of Complete Reaction Buffer and 4 μM substrate were combined to obtain the blank. Equal volumes of Complete Reaction Buffer and 4 μM substrate were combined and to the combined solution was added 2× final LRRK2 concentration.
To a 50 μl polypropylene plate, 5 μl/well buffer/substrate was added by hand to Blank wells. A Biomek FX was used to start the kinase reaction (“PLK SAR 23 ATP”). The following were added to the appropriate wells:
5 μl/well compound/ATP in Assay Plate;
5 μl/well kinase/substrate in Assay Plate;
The plate was incubated for 2 hours in the dark. Biomek FX was used to stop the kinase reaction (“PLK Stop”), and 10 μl/well Stop solution was added to the Assay Plate. Results were read on the LabChip 3000.
The LabChip 3000 was run using the job “LRRK2IC50” with the following job settings: […]

Sequence of LRRK2 (Q5S007 970-2527 G2019S limits assumed): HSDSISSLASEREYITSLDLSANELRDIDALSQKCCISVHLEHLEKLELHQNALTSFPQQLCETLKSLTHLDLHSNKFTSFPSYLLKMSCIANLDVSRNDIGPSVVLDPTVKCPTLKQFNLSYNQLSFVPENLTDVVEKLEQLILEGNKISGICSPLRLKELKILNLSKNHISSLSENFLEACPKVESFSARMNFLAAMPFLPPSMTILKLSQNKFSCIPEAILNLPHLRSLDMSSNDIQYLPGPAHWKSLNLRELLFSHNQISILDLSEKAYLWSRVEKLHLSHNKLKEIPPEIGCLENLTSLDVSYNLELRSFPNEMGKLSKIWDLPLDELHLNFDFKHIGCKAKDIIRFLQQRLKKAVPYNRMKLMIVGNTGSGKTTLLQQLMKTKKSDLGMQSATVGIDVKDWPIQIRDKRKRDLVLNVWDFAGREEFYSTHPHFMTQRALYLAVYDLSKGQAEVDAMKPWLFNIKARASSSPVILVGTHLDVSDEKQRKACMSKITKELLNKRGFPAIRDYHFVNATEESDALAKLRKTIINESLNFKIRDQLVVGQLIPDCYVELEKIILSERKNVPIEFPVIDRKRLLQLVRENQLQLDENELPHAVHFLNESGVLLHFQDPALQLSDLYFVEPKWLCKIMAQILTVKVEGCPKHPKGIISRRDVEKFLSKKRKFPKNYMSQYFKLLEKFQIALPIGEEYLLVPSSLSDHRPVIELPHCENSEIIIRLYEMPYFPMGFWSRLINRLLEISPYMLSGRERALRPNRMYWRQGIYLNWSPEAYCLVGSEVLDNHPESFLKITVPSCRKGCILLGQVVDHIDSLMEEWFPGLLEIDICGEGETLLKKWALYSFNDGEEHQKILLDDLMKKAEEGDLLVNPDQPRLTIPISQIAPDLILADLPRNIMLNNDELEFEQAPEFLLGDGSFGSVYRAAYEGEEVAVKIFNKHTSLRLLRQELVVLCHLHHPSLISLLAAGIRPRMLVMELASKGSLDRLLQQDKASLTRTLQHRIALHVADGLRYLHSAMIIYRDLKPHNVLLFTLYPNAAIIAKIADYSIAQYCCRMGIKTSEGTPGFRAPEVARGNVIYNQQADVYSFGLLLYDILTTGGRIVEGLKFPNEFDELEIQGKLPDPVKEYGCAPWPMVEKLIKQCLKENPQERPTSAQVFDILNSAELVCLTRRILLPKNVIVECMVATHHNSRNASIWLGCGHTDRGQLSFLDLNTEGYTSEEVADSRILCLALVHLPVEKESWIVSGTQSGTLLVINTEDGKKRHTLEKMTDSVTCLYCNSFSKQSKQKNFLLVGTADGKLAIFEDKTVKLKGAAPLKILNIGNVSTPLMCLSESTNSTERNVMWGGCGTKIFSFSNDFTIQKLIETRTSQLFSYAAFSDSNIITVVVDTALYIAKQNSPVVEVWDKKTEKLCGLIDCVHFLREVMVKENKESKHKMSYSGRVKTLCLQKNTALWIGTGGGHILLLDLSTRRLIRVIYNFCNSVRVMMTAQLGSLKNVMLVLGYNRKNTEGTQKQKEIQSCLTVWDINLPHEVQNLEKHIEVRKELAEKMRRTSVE

| Ki [nM] | Compound |
| --- | --- |
| 3.4 | CCNc1nc(Nc2cc(OC)c(C(=O)N3CCOCC3)cc2Cl)ncc1C(F)(F)F [Example 147, [5-Chloro-4-(4-ethylamino-5-trifluoromethyl-pyrimidin-2-ylamino)-2-methoxy-phenyl]-morpholin-4-yl-methanone] |
| 3.5 | CCNc1nc(Nc2cc(OC)c(C(=O)NC3CC3)cc2Cl)ncc1C(F)(F)F [Example 148, 5-Chloro-N-cyclopropyl-4-(4-ethylamino-5-trifluoromethyl-pyrimidin-2-ylamino)-2-methoxy-benzamide] |
| 9.3 | CCNc1nc(Nc2cc(OC)c(C(=O)NCCOC)cc2Cl)ncc1C(F)(F)F [Example 149, 5-Chloro-4-(4-ethylamino-5-trifluoromethyl-pyrimidin-2-ylamino)-2-methoxy-N-(2-methoxy-ethyl)-benzamide] |
| 8.9 | CNc1nc(Nc2cc(OC)c(C(=O)N3CCNCC3)cc2Cl)ncc1Cl [Example 150, [5-Chloro-4-(5-chloro-4-methylamino-pyrimidin-2-ylamino)-2-methoxy-phenyl]-piperazin-1-yl-methanone] |
| 2.8 | CNc1nc(Nc2cc(OC)c(C(=O)N3CCC(N(C)C)CC3)cc2Cl)ncc1Cl [Example 151, [5-Chloro-4-(5-chloro-4-methylamino-pyrimidin-2-ylamino)-2-methoxy-phenyl]-(4-dimethylamino-piperidin-1-yl)-methanone] |
| 8.6 | CNc1nc(Nc2cc(OC)c(C(=O)N3CCC(O)C3)cc2Cl)ncc1Cl (centres unmarked) [Example 152, [5-Chloro-4-(5-chloro-4-methylamino-pyrimidin-2-ylamino)-2-methoxy-phenyl]-(3-hydroxy-pyrrolidin-1-yl)-methanone] |
| 27.4 | CNc1nc(Nc2cc(OC)c(C(=O)NC3COC3)cc2Cl)ncc1Cl [Example 153, 5-Chloro-4-(5-chloro-4-methylamino-pyrimidin-2-ylamino)-2-methoxy-N-oxetan-3-yl-benzamide] |
| 5.2 | CNc1nc(Nc2cc(OC)c(C(=O)NC3CC3)cc2Cl)ncc1C(F)(F)F [Example 154, 5-Chloro-N-cyclopropyl-2-methoxy-4-(4-methylamino-5-trifluoromethyl-pyrimidin-2-ylamino)-benzamide] |
| 4.5 | CNc1nc(Nc2cc(OC)c(C(=O)NC3CCN(C)CC3)cc2Cl)ncc1Cl [Example 155, 5-Chloro-4-(5-chloro-4-methylamino-pyrimidin-2-ylamino)-2-methoxy-N-(1-methyl-piperidin-4-yl)-benzamide] |
| 7.4 | CNc1nc(Nc2cc(OC)c(C(=O)N3CCCC3)cc2Cl)ncc1Cl [Example 156, [5-Chloro-4-(5-chloro-4-methylamino-pyrimidin-2-ylamino)-2-methoxy-phenyl]-pyrrolidin-1-yl-methanone] |
| 28.2 | CNc1nc(Nc2cc(OC)c(C(=O)NC(C)(C)C)cc2Cl)ncc1Cl [Example 157, N-tert-Butyl-5-chloro-4-(5-chloro-4-methylamino-pyrimidin-2-ylamino)-2-methoxy-benzamide] |
| 6.8 | CNc1nc(Nc2cc(OC)c(C(=O)N(C)C)cc2Cl)ncc1C(F)(F)F [Example 158, 5-Chloro-2-methoxy-N,N-dimethyl-4-(4-methylamino-5-trifluoromethyl-pyrimidin-2-ylamino)-benzamide] |
| 3.6 | CNc1nc(Nc2cc(OC)c(C(=O)N3CCC(O)CC3)cc2Cl)ncc1Cl [Example 161, [5-Chloro-4-(5-chloro-4-methylamino-pyrimidin-2-ylamino)-2-methoxy-phenyl]-(4-hydroxy-piperidin-1-yl)-methanone] |
| 6.9 | CNc1nc(Nc2cc(OC)c(C(=O)N3CCOC(CO)C3)cc2Cl)ncc1Cl (centres unmarked) [Example 162, [5-Chloro-4-(5-chloro-4-methylamino-pyrimidin-2-ylamino)-2-methoxy-phenyl]-(2-hydroxymethyl-morpholin-4-yl)-methanone] |
| 7.8 | CNc1nc(Nc2cc(OC)c(C(=O)N(C)CCO)cc2Cl)ncc1Cl [Example 163, 5-Chloro-4-(5-chloro-4-methylamino-pyrimidin-2-ylamino)-N-(2-hydroxy-ethyl)-2-methoxy-N-methyl-benzamide] |
| 5.7 | CNc1nc(Nc2cc(OC)c(C(=O)N3CCCOCC3)cc2Cl)ncc1Cl [Example 165, [5-Chloro-4-(5-chloro-4-methylamino-pyrimidin-2-ylamino)-2-methoxy-phenyl]-[1,4]oxazepan-4-yl-methanone] |
| 3.3 | CNc1nc(Nc2cc(OC)c(C(=O)N3CCC(C#N)CC3)cc2Cl)ncc1Cl [Example 167, l-[5-Chloro-4-(5-chloro-4-methylamino-pyrimidin-2-ylamino)-2-methoxy-benzoyl]-piperidine-4-carbonitrile] |
| 5.4 | CNc1nc(Nc2cc(OC)c(C(=O)N3CC(O)C3)cc2Cl)ncc1Cl [Example 169, [5-Chloro-4-(5-chloro-4-methylamino-pyrimidin-2-ylamino)-2-methoxy-phenyl]-(3-hydroxy-azetidin-1-yl)-methanone] |
| 13.9 | CNc1nc(Nc2cc(OC)c(C(=O)NC3(C#N)CC3)cc2Cl)ncc1Cl [Example 170, 5-Chloro-4-(5-chloro-4-methylamino-pyrimidin-2-ylamino)-N-(l-cyano-cyclopropyl)-2-methoxy-benzamide] |
| 4.5 | CNc1nc(Nc2cc(OC)c(C(=O)N3CCC(C#N)C3)cc2Cl)ncc1Cl (stereo not drawn) [Example 171, l-[5-Chloro-4-(5-chloro-4-methylamino-pyrimidin-2-ylamino)-2-methoxy-benzoyl]-pyrrolidine-3-carbonitrile] |
| 33.3 | CNc1nc(Nc2cc(OC)c(C(=O)N3C[C@@H](C)N[C@@H](C)C3)cc2Cl)ncc1Cl [Example 172, [5-Chloro-4-(5-chloro-4-methylamino-pyrimidin-2-ylamino)-2-methoxy-phenyl]-((3R,5S)-dimethyl-piperazin-1-yl)-methanone] |
| 1.5 | CNc1nc(Nc2cc(OC)c(C(=O)NC3CCN(C)CC3)cc2Cl)ncc1C(F)(F)F [Example 173, 5-Chloro-2-methoxy-4-(4-methylamino-5-trifluoromethyl-pyrimidin-2-ylamino)-N-(1-methyl-piperidin-4-yl)-benzamide] |
| 4.1 | CNc1nc(Nc2cc(OC)c(C(=O)NC3COC3)cc2Cl)ncc1C(F)(F)F [Example 174, 5-Chloro-2-methoxy-4-(4-methylamino-5-trifluoromethyl-pyrimidin-2-ylamino)-N-oxetan-3-yl-benzamide] |
| 7.9 | CNc1nc(Nc2cc(OC)c(C(=O)NCC(C)(C)O)cc2Cl)ncc1C(F)(F)F [Example 175, 5-Chloro-N-(2-hydroxy-2-methyl-propyl)-2-methoxy-4-(4-methylamino-5-trifluoromethyl-pyrimidin-2-ylamino)-benzamide] |
| 4.1 | CNc1nc(Nc2cc(OC)c(C(=O)N3CCNCC3)cc2Cl)ncc1C(F)(F)F [Example 176, [5-Chloro-2-methoxy-4-(4-methylamino-5-trifluoromethyl-pyrimidin-2-ylamino)-phenyl]-piperazin-1-yl-methanone] |
| 2.9 | CNc1nc(Nc2cc(OC)c(C(=O)N3CCC(C#N)C3)cc2Cl)ncc1C(F)(F)F (centres unmarked) [Example 177, 1-[5-Chloro-2-methoxy-4-(4-methylamino-5-trifluoromethyl-pyrimidin-2-ylamino)-benzoyl]-pyrrolidine-3-carbonitrile] |
